Measured values reported in patent US20130196949A1, “Hydroxyalkyl starch in combination with cytostatica for the treatment of cancers by reduction of tumor growth rates” (Fresenius Kabi Deutschland GmbH, priority 2012, published 2013).
Like-named read-outs stand apart in the source and are kept apart here.

How the values were obtained:
[1] = system: LXFE 397/26N17 (Non-Small Cell Lung Cancer, squamous cell carcinoma) xenograft
[2] = LXFE 397 study, FIG. 2
[3] = Relative body weight of mice bearing RXF 1220 tumors; type: in vivo; conditions: RXF 1220 study, FIG. 6
[4] = system: RXF 1220 (renal cancer, hypernephroma) xenograft; conditions: day 27; Sunitinib 40 mg/kg p.o., Voluven 10% 20 ml/kg i.v. 1 hour prior; days 0-11
[5] = system: HNXF 1842 (Head and Neck Cancer, squamous cell carcinoma) xenograft; experiment: Tumor growth of HNXF 1842 human tumor xenograft in NMRI nu/nu mice; type: in vivo
[6] = Relative body weight of mice bearing HNXF 1842 tumors; type: in vivo; conditions: HNXF 1842 study, FIG. 4

With `CCCCCOC(=O)Nc1nc(=O)n([C@@H]2O[C@H](C)[C@@H](O)[C@H]2O)cc1F` [Capecitabine] the “median relative tumor volume increase compared to day 0” value (from here on “median relative tumor volume increase”) ([1]; day 14, Capecitabine 100 mg/kg p.o., Voluven 10% 20 ml/kg i.v. 1 hour prior, days 0, 4, 7, 11, 14, 18) was “approx. 15.2 fold”, the “inhibitory effect on tumor growth (in words)” value ([1]; over 14 days, combination compared with reference drug alone) was “moderately inhibited the tumor growth” and the “relative median body weight over time (in words)” value (from here on “relative median body weight”) [2] was “did not increase the body weight as steadily as the other two”.

With `CCN(CC)CCNC(=O)c1c(C)[nH]c(/C=C2\C(=O)Nc3ccc(F)cc32)c1C` [Sunitinib] the “relative median body weight” value [3] was “increased slightly over time” and the “median relative tumor volume increase” value [4] was “approx. 8.5 fold”.

In the case of `CC(=O)O[C@H]1C(=O)[C@@]2(C)[C@H]([C@H](OC(=O)c3ccccc3)[C@]3(O)C[C@H](OC(=O)[C@H](O)[C@@H](NC(=O)c4ccccc4)c4ccccc4)C(C)=C1C3(C)C)[C@]1(OC(C)=O)CO[C@@H]1C[C@@H]2O` [Paclitaxel], the “median relative tumor volume increase” value ([5]; day 18, Paclitaxel 10 mg/kg i.v., Voluven 10% 20 ml/kg i.v. 1 hour prior, days 0, 7, 14, 21) is reported as “approx. 7.1 fold”, the “inhibitory effect on tumor growth (in words)” value ([5]; over 18 days, combination compared with reference drug alone) is reported as “inhibited the tumor growth” and the “relative median body weight” value [6] is reported as “lowest increase”.
